For 15 compounds, TGI and GI50 results are on record in PubChem BioAssay (NCI).

Holding throughout (assay): growth of human tumour cells (NCI), 48 h
Experiment [1] concerns ACHN renal.
In experiment [2] the test system is HCC-2998 colon.
The test system of experiment [3] is IGROV1 ovarian.
Experiment [4] has as its system K-562 leukemia.
Experiment [5] concerns NCI-H23 lung.
The test system of experiment [6] is NCI-H522 lung.
For experiment [7], the system named is U251 CNS.
Experiment [8] deals with UACC-62 melanoma.
Experiment [9] deals with UO-31 renal.
Experiment [10] relates to MCF7 breast.

Each structure is given as a SMILES string.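 Compound exposure: 48 hours, 5 concentrations, 96-well plates. GI50 is the concentration that inhibits growth by half. TGI denotes the concentration required for complete inhibition of growth.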

As to `NCCCNCc1c2ccccc2c(CNCCCN)c2ccccc12`, the TGI in experiment [1] was above 100 µM; in experiment [2], 30.9 µM; in experiment [3], above 100 µM; in experiment [4], 32.5 µM; in experiment [5], 49.7 µM; in experiment [6] it was 21 µM. Moreover, the TGI in experiment [7], in experiment [8] and in experiment [9] was above 100 µM in each case.
Turning to `CC1CCCc2c1n[nH]c2CC1CC(=O)NC(=O)C1` (stereo not drawn), the TGI in [1], in experiment [2], in [3], in experiment [4], in experiment [5] and in experiment [6] was above 100 µM throughout. In addition, the TGI in experiment [7], in experiment [8] and in [9] was above 100 µM throughout.
On to `COC(=O)CCCCCOS(=O)(=O)c1ccc(C)cc1`, for which the TGI in experiment [1], in experiment [2], in experiment [3], in experiment [4], in [5] and in experiment [6] was above 100 µM in each case. The TGI in experiment [7], in [8] and in experiment [9] was above 100 µM in each case.
Take `OCC1CC2C=CCC(C2)C1` (stereo not drawn): the TGI in experiment [1], in experiment [3], in [4], in experiment [5], in experiment [6] and in experiment [7] was above 100 µM each time. Besides, the TGI in [8] and in [9] was above 100 µM throughout.
Regarding `C[N+]1(CCNP(=S)(NCC[N+]2(C)Cc3c(ccc4c3OCO4)C3C2c2cc4c(cc2C[C@@H]3O)OCO4)NCC[N+]2(C)Cc3c(ccc4c3OCO4)C3C2c2cc4c(cc2C[C@@H]3O)OCO4)Cc2c(ccc3c2OCO3)C2C1c1cc3c(cc1C[C@H]2O)OCO3` (stereo partly drawn), the GI50 in [1] is 4.16 µM; in experiment [2], 5.22 µM; in experiment [3] it was 4.9 µM; in [4], 2320 nM; in experiment [5], 2250 nM; in experiment [6], 2.55 µM. Besides, the GI50 in [7] was 1.99 µM; in experiment [8], 1230 nM; in experiment [9], 4.3 µM.
Consider `CCCC[C@H](CCc1ccccc1)N(C(=O)OC)N1CCC[C@H]1COC`, for which the TGI is 30.4 µM in [1]; 28.1 µM in experiment [2]; 56.8 µM in [3]; 61.2 µM in [4]; 32 µM in experiment [5]; 28.1 µM in experiment [6]. Moreover, the TGI in [7] came to 29.1 µM; in [8], 30.9 µM; in [9], 35.4 µM.
On to `CSc1ccc(Cc2cc(C(C)(C)C)cc(C(C)(C)C)c2O)cc1`, for which the TGI turned out to be 29 µM in experiment [1]; 32.5 µM in [2]; 26.7 µM in experiment [3]; 26.6 µM in experiment [4]; 28.7 µM in experiment [5]; 28.6 µM in experiment [7]. In addition, the TGI stood at 29.2 µM in experiment [8] and 30.7 µM in experiment [9].
Regarding `COc1ccc(/C=C/c2cc(OC)c(OC)c(OC)c2)cc1OC`, the TGI in experiment [1], in experiment [2], in [3], in [4], in experiment [5] and in experiment [6] was above 100 µM each time. For the same compound, the TGI in [7], in [8] and in experiment [9] was above 100 µM each time.
On to `O=[N+]([O-])c1cc(I)cc(/C=N/NS(=O)(=O)c2ccc(F)cc2)c1O`, for which the TGI in experiment [1] was 81.5 µM; in [2], above 100 µM; in experiment [3], 95.7 µM; in [4] it was 52.7 µM; in experiment [5], 38.9 µM; in experiment [6] it was 40.9 µM. Besides, the TGI in experiment [7] is 59.9 µM; in [8], 41.6 µM; in [9], 61 µM.
As to `CC1=NC(C)=C(/C(C)=N/NC(=O)c2ccccc2O)C(C)/C1=C(/C)NNC(=O)c1ccccc1O` (stereo not drawn), the TGI in [1] was 86.4 µM; in [3] it was 33 µM; in [4], 35.3 µM; in [5], 26.9 µM; in [6], 43.6 µM; in [7], above 100 µM. The results for the TGI in [8] and in experiment [9] were 26.3 µM and 43.1 µM, respectively.
As for `C=C1C2CC(OC(C)=O)C3(C)C(c4ccoc4)OC(=O)[C@@H](O)[C@]13OC1C[C@H](OC(C)=O)C(C)(C)[C@H](C(O)C(=O)OC)[C@]12C` (stereo partly drawn), the TGI in [1], in experiment [2], in experiment [3], in [4], in [5] and in [7] was above 100 µM each time. Further, the TGI in experiment [8] and in experiment [9] was above 100 µM throughout.
With `O=C(N/C(=C\c1cccc([N+](=O)[O-])c1)c1nc2c3c(ccc2[nH]1)C(=O)c1ccccc1C3=O)c1ccccc1`, the TGI in [1], in experiment [5], in [6], in experiment [7], in experiment [8] and in experiment [9] was above 100 µM in each case.
Regarding `C/C(=N\NC(=O)c1ccccc1O)c1c(O)cc(C)oc1=O`, the TGI in [1], in [2], in experiment [3], in experiment [4], in experiment [5] and in experiment [6] was above 100 µM each time. Besides, the TGI in experiment [7], in [8] and in experiment [9] was above 100 µM each time.
Take `Nc1ccc(C(=O)CC2(O)C(=O)Nc3ccccc32)cc1` (stereo not drawn): the TGI in experiment [1], in [3], in [4], in experiment [5], in experiment [6] and in [8] was above 100 µM each time. The TGI in [9] was above 100 µM.
For `COc1ccc(NC(=O)c2ccc(C(F)(F)F)nc2Nc2ccc(Cl)cc2C)cc1Cl`, the GI50 in [1] is 5.36 µM; in experiment [4], 2420 nM; in experiment [10], 2420 nM; in experiment [5] it was 3090 nM; in experiment [6], 3.53 µM; in experiment [7], 4.23 µM. Besides, the GI50 is 3350 nM in [8] and 4.39 µM in [9]. The TGI in [1] amounted to 18.6 µM; in experiment [4] it was 10.6 µM; in experiment [10], 13.1 µM; in experiment [5], 15.1 µM; in experiment [6], 15.4 µM; in experiment [7] it was 14.9 µM. In addition, the TGI in experiment [8] was 14.3 µM; in experiment [9], 17.8 µM.
